Patent publication US9452130B2, “Pharmaceutical composition for preparing drug delivery nano/micro bubbles” (priority 2014, dated 2016)

Legend:
[1] = test system: cells; experiment: Cell images of cells co-cultured with the components of the nano/micro bubbles (FITC-insulin transmission); type: cell-based; settings: cells co-cultured with the component; stained with Cld 4, E-cadherin, DAPI; FIG. 3
[2] = test system: diabetic rats; experiment: Blood glucose change in diabetic rats after oral or subcutaneous administration; type: in vivo, male Wistar rats; settings: subcutaneous injection, 5 IU/kg, 0 to 10 hours; FIG. 5
Description: Animal experimental procedures were performed based on the management and use of laboratory animals guidelines promulgated by the Council of Agriculture. About 300 to 350 grams of male rats (male Wistar rats) were used. The animal experiments were performed to investigate the treatment of diabetic rats using insulin-embedded carrier system by oral administration of drugs. During experiment, the rats were administrated by oral (30 IU/Kg) and subcutaneous (5 IU/Kg) administration after the rats were fixed. At different times, the animals were placed in the blood-drawing fixation frame to expose the tail, and then the tails were disinfected with iodine to prevent bacterial infection. […] Meanwhile, pharmacokinetics was measured using enzyme immunoassay. In the present example, groups comprising nano/micro bubbles of the present invention (containing 30 IU/kg of insulin), oral administration (30 IU/kg of insulin) and subcutaneous injection of insulin (5 IU/kg) are compared. The change rates in plasma insulin and blood glucose concentration from 0 to 10 hours after subjects taking insulin or injected with insulin were recorded respectively, and the results are illustrated in FIGS. 5a and 5b.

| Compound | transmission of FITC-insulin (pathway) [1] | change rate of the blood glucose [2] |
| --- | --- | --- |
| O=C(O)CN(CCN1CC(=O)OC(=O)C1)CCN1CC(=O)OC(=O)C1 [DTPA dianhydride, diethylenetriaminepentaacetic dianhydride] | can promote transmission of FITC-insulin via paracellular pathway |  |
| CCCCCCCCCCCCOS(=O)(=O)[O-].[Na+] [SDS] | can promote transmission of FITC-insulin via both of paracellular pathway and transcellular pathway |  |
| insulin |  | rapidly declined and rose again |
